Source: patent US20050203082A1, “Combination therapy with inhibitors of inducible nitric oxide synthase and alkylating agents” (priority 2003, published 2005)
pIC50: −log10 of the molar value. Where a name gives a salt, the structure may show the parent alone.

Experiments:
human cartilage explants = assay: Human cartilage explant assay (IL-1 induced nitrite production); format: cell-based; conditions: inhibition of nitrite production, IL-1 stimulated explants
From the text: Bone pieces are rinsed twice with Dulbecco's Phosphate Buffered Saline (GibcoBRL) and once with Dulbecco's Modified Eagles Medium (GibcoBRL) and placed into a petri dish with phenol red free Minimum Essential Medium (MEM) (GibcoBRL). […] The culture media was either a custom modification of Minimum Essential Medium(Eagle) with Earle's salts (GibcoBRL) prepared without L-Arginine, without L-Glutamine and without phenol red or a custom modification of serumless Neuman and Tytell (GibcoBRL) medium prepared without L-arginine, without insulin, without ascorbic acid, without L-glutamine and without phenol red. Both are supplemented before use with 100 μM L-Arginine (Sigma), 2 mM L-glutamine, 1× HL-1 supplement (BioWhittaker), […] ascorbic acid (Sigma) and 150 pg/ml recombinant human IL-1[…] (RD Systems) to induce nitric oxide synthase. Compounds are then added in 10 μL aliquots and the explants incubated at 37° C. with 5% CO2 for 18-24 hr. The day old supernatant is then discarded and replaced with fresh culture media containing recombinant human IL-1β and compound and incubated for another 20-24 hr. […] All samples are done in quadruplicate. Unstimulated controls are cultured in media in the absence of recombinant human IL-1{tilde over (□)} IC50 values (Table I) are determined from plotting the percent inhibition of nitrite production at 6 different concentrations of inhibitor.

recurrent GBM = recurrent GBM after resection and radiotherapy; cited from earlier work
[1] = tested on: inducible nitric oxide synthase activity in vivo; assay: In vivo assay: LPS-induced plasma nitrite/nitrate in endotoxin-treated rats; parameters: species or system rat; conditions: oral administration, plasma nitrite/nitrate 5 hr post-treatment; for ED50: Rattus norvegicus
From the text: Plasma nitrite/nitrate levels can be determined 5 hr post-treatment.

[2] = tested on: C6 cells overexpressing iNOS; conditions: concentration-dependent; cited from earlier work

Row | Structure (SMILES) | pIC50 (human cartilage explants; Homo sapiens) | ED50 [1] | further results
1 | CC(=N)NCC(F)=CCC[C@H](N)C(=O)O (mixture of isomers) [Example B, (2S,5E/Z)-2-amino-6-fluoro-7-[(1-iminoethyl)amino]-5-heptenoic acid, dihydrochloride] | 6.70 | – | –
2 | O=NN(CCCl)C(=O)NCCCl [BCNU, 1,3-bis(β-chloroethyl)-1-nitrosourea] | – | – | response rate (recurrent GBM): about 30%
3 | O=NN(CCCl)C(=O)NC1CCCCC1 [CCNU, urea, N-(2-chloroethyl)-N′ cyclohexyl-N-nitroso-(9CI)] | – | – | response rate (recurrent GBM): about 30%
4 | CC(=N)NC/C(F)=C\CC[C@H](N)C(=O)O [Example A, (2S,5E)-2-amino-6-fluoro-7-[(1-iminoethyl)amino]-5-heptenoic acid, dihydrochloride] | 7.00 | < 0.1 mg/kg | ED50 in endotoxin-treated rats ([1]; dihydrochloride): <0.1 mg/kg
5 | CC(=N)NC/C(F)=C/CC[C@H](N)C(=O)O [Example D, (2S,5Z)-2-amino-6-fluoro-7-[(1-iminoethyl)amino]-5-heptenoic acid, trihydrochloride, dihydrate] | 5.60 | > 10 mg/kg | –
6 | CC(=NO)NC/C(F)=C\CC[C@H](N)C(=O)O [Example G, (2S,5E)-2-amino-6-fluoro-7-[(1-hydroximinoethyl)amino]-5-heptenoic acid] | – | < 0.1 mg/kg | melting point: 198 to 200 °C
7 | CC(=N)NC/C(F)=C\CC[C@H](N)C(=O)Nc1nnn[nH]1 [Example H, (2S,5E)-2-amino-6-fluoro-7-[(1-iminoethyl)amino]-N-(1H-tetrazol-5-yl) 5-heptenamide, dihydrochloride] | – | < 0.3 mg/kg | –
8 | CC(=N)NC/C(F)=C\CC[C@](C)(N)C(=O)O.Cl.Cl [Example HH, (2S,5E)-2-amino-2-methyl-6-fluoro-7-[(1-iminoethyl)amino]-5-heptenoic acid, dihydrochloride] | 6.40 | 0.4 mg/kg | –
9 | COC[C@](N)(CSCCNC(C)=N)C(=O)O [Example J, 2-[[[2-[(1-Iminoethyl)amino]ethyl]thiolmethyl]-O-methyl-D-serine, dihydrochloride] | – | – | pIC50 (human cartilage explants): 5.09
10 | CC(=N)NC/C=C\CC[C@](C)(N)C(=O)O [Example LL, (2S,5Z)-7-acetimidoylamino-2-amino-2-methyl-hept-5-enoic acid] | 6.10 | 0.3 mg/kg | –
11 | Cl.N=C1CCCC[C@H](CCCC[C@@H](N)C(=O)O)N1.O.O.O [Example V, (αR,2S)-α-aminohexahydro-7-imino-1H-azepine-2-hexanoic acid, trihydrate hydrochloride] | > 5.00 | < 3 mg/kg | –
12 | N=C1CCCC[C@H](CCCC[C@H](N)C(=O)O)N1 [Example X, (αS,2S)-α-aminohexahydro-7-imino-1H-azepine-2-hexanoic acid, trihydrate hydrochloride] | – | – | pIC50 (human cartilage explants): > 5.00
13 | N=C1CCCC[C@H](CCCC[C@H](N)C(=O)O)N1 [Example Z, (αS,2S)-α-aminohexahydro-7-imino-1H-azepine-2-hexanoic acid, trihydrate hydrochloride] | > 5.00 | – | –
14 | COC(=O)[C@@H](N)CCCNC(=N)N[N+](=O)[O-] [L-NAME] | – | – | BCNU toxicity [2]: restoration of BCNU toxicity; nitrite levels [2]: reduced the nitrite levels
